Measurements published in patent US20240317708A1, “INHIBITORS OF TRANSGLUTAMINASES” (ZEDIRA GMBH, priority 2021, published 2024).

Experiments:
[1] = Log D shake flask method (octanol / PBS pH 7.4, HPLC); assay type: physicochemical; settings: octanol/phosphate-buffered saline (PBS); octanol / PBS pH 7.4, shake flask
Method: In order to classify the inventive compounds according to their lipophilicity, Log D values (distribution coefficient) were determined by means of the well-established shake flask method, measuring the partition of a compound between an octanol and phosphate-buffered saline (PBS, pH 7.4) by HPLC.

[2] = target: T1, recombinant human transglutaminase 2 (Homo sapiens, UniProt P21980); assay: Transglutaminase assay (dansylcadaverine incorporation into dimethylcasein, DCC-assay); assay type: biochemical; settings: recombinant human TG2 10 nM, dansylcadaverine/dimethylcasein, 37° C.
T1 construct: purchased Zedira T022
T1 sequence (P21980 1-687): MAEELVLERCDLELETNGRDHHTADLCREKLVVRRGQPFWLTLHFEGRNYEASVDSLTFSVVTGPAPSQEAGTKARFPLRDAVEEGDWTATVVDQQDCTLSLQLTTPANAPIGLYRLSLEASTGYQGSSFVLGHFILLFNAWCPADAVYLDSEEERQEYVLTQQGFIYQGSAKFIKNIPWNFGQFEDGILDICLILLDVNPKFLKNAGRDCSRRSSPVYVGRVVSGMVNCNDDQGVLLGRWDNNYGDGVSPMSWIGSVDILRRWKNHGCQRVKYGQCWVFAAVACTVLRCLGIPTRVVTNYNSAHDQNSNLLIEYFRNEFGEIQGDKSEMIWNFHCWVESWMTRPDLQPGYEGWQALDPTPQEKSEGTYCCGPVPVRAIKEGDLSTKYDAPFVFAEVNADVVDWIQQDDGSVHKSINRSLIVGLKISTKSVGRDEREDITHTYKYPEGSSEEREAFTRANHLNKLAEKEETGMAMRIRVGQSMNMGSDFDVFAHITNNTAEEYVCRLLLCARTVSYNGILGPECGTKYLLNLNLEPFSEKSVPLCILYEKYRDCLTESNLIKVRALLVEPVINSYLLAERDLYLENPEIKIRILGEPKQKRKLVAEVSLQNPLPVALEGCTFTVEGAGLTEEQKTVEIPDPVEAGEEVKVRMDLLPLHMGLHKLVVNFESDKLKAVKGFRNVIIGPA
Outline: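 IC50 derived from fluorescence slope between 20 and 30 min (λex 330 nm, λem 500 nm, 37 °C), expressed relative to a 2% DMSO control. Reaction: 10 nM recombinant human TG2, 4 μM dimethylcasein, 16.7 μM dansylcadaverine, 10 mM CaCl2 and glutathione, pH 8.0.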

[3] = Caco-2 permeability assay (CacoReady kit); assay type: in vitro ADME; settings: human
Outline: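 Compounds are tested on pre-formed Caco-2 barriers supplied as a ready-to-use kit, following the kit protocol, and the Papp value is derived to estimate intestinal absorption.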

Row | Structure (SMILES) | logD [1] | IC50 [2] [nM] | Papp [3] [×10⁻⁶ cm/s]
1 | COC(=O)/C=C/CC[C@H](NC(=O)c1snnc1C)C(=O)Nc1cccn(CC(=O)N[C@@H]2C[C@@H]3CC[C@H]2C3)c1=O [III-115, (S,E)-methyl 7-(1-(2-((1S,2R,4R)-bicyclo[2.2.1]heptan-2-ylamino)-2-oxoethyl)-2-oxo-1,2-dihydropyridin-3-ylamino)-6-(4-methyl-1,2,3-thiadiazole-5-carboxamido)-7-oxohept-2-enoate] | 1 to 3 | < 25 | < 1
2 | COC(=O)/C=C/CC[C@H](NC(=O)c1snnc1C)C(=O)Nc1cccn(CC(=O)NC2C3CC4CC(C3)CC2C4)c1=O (stereo partly drawn) [III-118, (S,E)-methyl 7-(1-(2-(2-adamantylamino)-2-oxoethyl)-2-oxo-1,2-dihydropyridin-3-ylamino)-6-(4-methyl-1,2,3-thiadiazole-5-carboxamido)-7-oxohept-2-enoate] | 1 to 3 | < 25 | < 1
3 | COC(=O)/C=C/CC[C@H](NC(=O)c1ccnn1C)C(=O)Nc1cccn(CC(=O)NC2C3CC4CC(C3)CC2C4)c1=O (stereo partly drawn) [III-119, (S,E)-methyl 7-(1-(2-(2-adamantylamino)-2-oxoethyl)-2-oxo-1,2-dihydropyridin-3-ylamino)-6-(1-methyl-1H-pyrazole-5-carboxamido)-7-oxohept-2-enoate] | < 1 | < 25 | < 1

The next lines start with the values.

Row | logD [1] | IC50 [2] [nM] | Papp [3] [×10⁻⁶ cm/s] | Structure (SMILES)
4 | 1 to 3 | < 25 | < 1 | COC(=O)/C=C/CC[C@H](NC(=O)c1ccnn1C)C(=O)Nc1cccn(CC(=O)NC23CC4CC(C)(CC(C)(C4)C2)C3)c1=O [III-113, (S,E)-methyl 7-(1-(2-(3,5-dimethyladamantane-1-amino)-2-oxoethyl)-2-oxo-1,2-dihydropyridin-3-ylamino)-6-(1-methyl-1H-pyrazole-5-carboxamido)-7-oxohept-2-enoate]
5 | 1 to 3 | < 25 | < 1 | COC(=O)/C=C/CC[C@H](NC(=O)c1cnnn1C)C(=O)Nc1cccn(CC(=O)NC23CC4CC(C)(CC(C)(C4)C2)C3)c1=O [III-114, (S,E)-methyl 7-(1-(2-(3,5-dimethyladamantane-1-amino)-2-oxoethyl)-2-oxo-1,2-dihydropyridin-3-ylamino)-6-(1-methyl-1H-1,2,3-triazole-5-carboxamido)-7-oxohept-2-enoate]
6 | < 1 | < 25 | < 1 | COC(=O)/C=C/CC[C@H](NC(=O)c1cnnn1C)C(=O)Nc1cccn(CC(=O)N[C@@H]2C[C@@H]3CC[C@H]2C3)c1=O [III-116, (S,E)-methyl 7-(1-(2-((1S,2R,4R)-bicyclo[2.2.1]heptan-2-ylamino)-2-oxoethyl)-2-oxo-1,2-dihydropyridin-3-ylamino)-6-(1-methyl-1H-1,2,3-triazole-5-carboxamido)-7-oxohept-2-enoate]
7 | 1 to 3 | < 25 | < 1 | COC(=O)/C=C/CC[C@H](NC(=O)c1ccnn1C)C(=O)Nc1cccn(CC(=O)N[C@@H]2C[C@@H]3CC[C@H]2C3)c1=O [III-117, (S,E)-methyl 7-(1-(2-((1S,2R,4R)-bicyclo[2.2.1]heptan-2-ylamino)-2-oxoethyl)-2-oxo-1,2-dihydropyridin-3-ylamino)-6-(1-methyl-1H-pyrazole-5-carboxamido)-7-oxohept-2-enoate]
8 | 1 to 3 | < 25 | < 1 | COC(=O)/C=C/CC[C@H](NC(=O)c1snnc1C)C(=O)Nc1cccn(CC(=O)N[C@H]2C[C@H]3CC[C@]2(C)C3(C)C)c1=O [III-120, (S,E)-methyl 6-(4-methyl-1,2,3-thiadiazole-5-carboxamido)-7-oxo-7-(2-oxo-1-(2-oxo-2-((1R,2S,4R)-1,7,7-trimethylbicyclo[2.2.1]heptan-2-ylamino)ethyl)-1,2-dihydropyridin-3-ylamino)hept-2-enoate]
